Consider one compound from patent US12605407B2, “Methods to induce terminal differentiation in stem cells by interfering with DNA replication, methods of inducing pancreatic differentiation, and differentiated cells obtained thereof” (priority 2018, dated 2026).

Assay type in all cases: cell-based, human
For assay [1], the system named is pancreatic progenitors and beta cells. The assay can be described thus: Cell cycle progression profiling by flow cytometry (Edu incubation, Hoechst DNA content, KI67). The protocol: The beta cell clusters were dissociated using TrypLE™ Express into single cells. Cells were fixed with 4% PFA for 10 min and followed by permeabilization at −20° C. with cold methanol for 10 min. Primary antibodies were added at a dilution of 1:100 in autoMACs Rinsing Solution (Cat. No. 130-091-222, Miltenyi Biotec) containing 0.5% BSA at 4° C. for 1 hour. Secondary antibodies were added at a dilution of 1:500 at room temperature for 1 hour. The cells were filtered with BD Falcon 12×75 mm tube with cell strainer cap (Cat. No. 352235, BD) and subsequently analyzed by flow cytometer. Data were analyzed using Flowjo software. Negative controls were performed by only adding secondary antibodies.
To investigate the mechanism underlying the increased purity of stem cell-derived C-peptide positive cells induced by APH, cell proliferation, apoptosis and differentiation efficiency were examined during differentiation. The cell cycle progression was profiled at day 15, day 18, day 20 and day 27 of beta cell differentiation. In untreated cells, C-peptide positive cells started to form from day 15 (about 5%) (FIG. 2A) and reached a peak at day 20 (about 46%) (FIG. 2B). About 2% of total cells underwent proliferation during 2 hours of Edu incubation at each stage before day 20 and very few C-peptide positive cells were labeled positive for Edu (FIG. 2B). At day 27, the percentage of proliferating cells increased to about 13% and the percentage of C-peptide positive cells decreased due to proliferation of non-C-peptide cells in the clusters (FIG. 2B). When APH was added from day 15 to day 27, the number of C-peptide positive cells was increased as early as day 18, 3 days after addition of APH (FIG. 2C). At day 20, about 60% cells expressed C-peptide and the high expression of C-peptide was maintained until the day 27.
To determine the cell cycle phase at which aphidicolin arrested pancreatic progenitors and beta cells, flow cytometry combined with Hoechst staining for DNA content and EdU labeling was performed.
(§1) By the end of day 27, 30% of control cells were in cell cycle through G1 to M phase indicated by the expression of KI67 (a proliferation marker expressed in the cells within cell cycle) and amount of DNA content (FIG. 3A). […] The cell cycle gene expression in insulin expressing cells was also examined.
Background: Flow cytometry measures light scatter and fluorescence of single cells or particles in a stream.

Assay [2] relates to stem cell derived beta cells. Kind of assay: Gene expression by quantitative realtime PCR in sorted insulin-GFP positive cells.
From the text: Total RNA was extracted from the cells at beta cell stage (d27) from different conditions using a RNeasy Mini Kit (Cat. No. 74106, QIAGEN). The total RNA was reverse transcripted into cDNA using iScript™ Reverse Transcription Supermix (Cat. No. 170-8841, Bio-Rad), and the cDNA were sequentially used as template with SsoFast™ EvaGreen® Supermix (Cat. No. 172-5202, Bio-Rad) for quantitative realtime PCR.
as §1
(§2) Insulin positive cells were isolated based on GFP expression and the expressions of genes related to the maturation of beta cells including PDX1, NKX6.1, MAFA and insulin were evaluated (FIG. 6A). […] In addition, the C-peptide secretion was increased 2-6-fold, with an average of 3-fold, in response to high levels of glucose (FIG. 6D).

In assay [3] the test system is stem cell derived beta cells. The assay can be described thus: Western blotting of sorted GFP positive cells. The following applies: Western Blot. As to the method:
The sorted GFP positive and negative cells with and without cell cycle inhibitor (e.g., APH) treatment were lysed with RIPA buffer. Protein was quantified with Pierce BCA protein assay kit. 20 ug of protein was loaded on 4-20% Mini-PROTEAN TGS Precast Protein Gels (Cat. No. 4561094, Bio-Rad) from each condition and ran at 100 V for 1 hour followed by transferring protein on PVDF membrane. The membrane was blocked with 3% BSA in TBST for 1 hour at RT, incubate with primary antibodies diluted in TBST with 3% BSA overnight on a shaker. After washing with TBST, the membrane was incubated with secondary antibodies diluted in TBST with 3% non-fat dry milk powder for 1 hour at room temperature. The image was taken using ChemiDoc Imaging Systems (Bio-Rad).
as §2
In general terms: A western blot detects proteins with antibodies after separation by electrophoresis.

The next assay concerns sc-beta cell clusters. The assay can be described thus: Static glucose stimulated C-peptide secretion. The note with it: 2 mM versus 20 mM glucose. As to the method: Krebs Ringer buffer (KRB) was prepared by addition of 129 mM NaCl, 4.8 mM KCl, 2.5 mM CaCl2), 1.2 mM MgSO4, 1 mM Na2HPO4, 1.2 mM KH2PO4, 5 mM NaHCO3, 10 mM HEPES and 0.1% BSA in deionized water and was sterilized using 0.22 μm filter. 2 mM and 20 mM glucose solution were prepared in KRB for low glucose and high glucose challenge of sc-beta cell clusters. 10-20 sc-beta cell clusters (about 5×10^5 cells) were collected from control and cells treated with cell cycle inhibitors including APH and treated conditions and pre-incubated in 500 μl low glucose solution for 1 hour. Clusters were then washed once with low glucose solution and sequentially incubated in 200 μl of low glucose and then high glucose solution for 30 minutes. 130 μl supernatant of each condition were collected. Supernatants containing secreted C-peptide stimulated by low and high glucose were processed using Mercodia Ultrasensitive Human C-peptide ELISA kit. Fold changes of C-peptide secretion before and after glucose stimulation were calculated.
as §2

The mark [4] stands for this setting: GFP positive cells from APH treated clusters versus GFP positive cells in control clusters.

As for `C[C@@]1(CO)[C@H](O)CC[C@@]2(C)[C@H]1CC[C@H]1C[C@@H]3C[C@@]12CC[C@]3(O)CO` [APH, Aphidicolin], the “number of C-peptide positive cells” value in assay [1] (day 18, 3 days after addition of APH (added day 15 to day 27)) is “increased”. Further, the “cells expressing C-peptide” value in assay [1] (day 20, APH added from day 15) is recorded as “about 60%”. In assay [1] (end of day 27), the “cell cycle phase of arrest” value was “arrested in G1 phase” and the “cells in cell cycle (KI67)” value is on record as “About 5%”. Also, the “high expression of C-peptide” value in assay [1] (until day 27, APH added day 15 to day 27) is “maintained”. For the same compound, the “proliferating cells (Edu)” value in assay [1] (whole duration of differentiation, APH day 15 to day 27) is listed as “Very few cells, if any”. In assay [2] (setting [4]), the “expression of MAFA at transcription level” value is given as “significantly upregulated”, the “expression of NKX6.1 at transcription level” value is on record as “significantly upregulated”, the “expression of PDX1 at transcription level” value is “significantly upregulated” and the “expression of insulin at transcription level” value was “significantly upregulated”. In assay [2] (insulin positive cells), the “expression of CDK4” value is listed as “downregulated”, the “expression of Cyclin D1” value is “downregulated” and the “expression of P21” value is recorded as “upregulated”. For the same compound, in assay [3], the “expression of MAFA at the translational level” value was “increased expression”, the “expression of NKX6.1 at the translational level” value is listed as “increased expression”, the “expression of PDX1 at the translational level” value was “increased expression” and the “expression of insulin at the translational level” value was “increased expression”. In the assay on sc-beta cell clusters, the “C-peptide secretion increase in response to high levels of glucose” value is recorded as 2-6 fold and the “C-peptide secretion increase in response to high levels of glucose, average” value is recorded as 3 fold.
